Data set [1] in a line: EPR of ATSM-Cu(II) complex after addition of ligands. Type of data set: physicochemical. The conditions noted are these: 0.1 mM ATSM-Cu(II), 4 molar equivalents of ligand; 30% DMSO, 0.1 M phosphate buffer (pH 7.4). The method, then:
(§1) The stability of the ATSM-Cu(II) complex was tested by using UV-visible spectrophotometry. […] In order to confirm the dissociation of ATSM-Cu(II) complex or the formation of copper complex with ligands or copper chelation by ligands, the effect of ligands on ATSM-Cu(II) was also tested using electron paramagnetic resonance (EPR) spectroscopy.
The stability of ASTM-Cu(II) complex was further studied by EPR spectroscopy. 0.1 mM of ATSM-Cu(II) complex was prepared in 30% DMSO and 0.1 M phosphate buffer (pH 7.4).

The nature of data set [2]: UV-visible titration of ATSM-Cu(II) complex with Cu(II) chelators and peptides (311 nm / 465 nm). The data set is classed as physicochemical. Particulars: for molar equivalents sufficient/needed to remove copper from the ATSM-Cu(II) complex: 30% DMSO in 0.1 M phosphate buffer (pH 7.4). The method, then: as §1
Stock solutions of CuCl2 (10 mM), 1,10-phenanthroline (10 mM), IDA (10 mM), and L-histidine (10 mM), NTA (5 mM) and Pep1 (5 mM) were prepared in ultrapure water (Milli-Q®). Stock solutions (1 mM) of HAGAH, HGGH and HTGMK peptides were prepared by dissolution in 0.1 M phosphate buffer (pH 7.4).
In order to facilitate the solubility of ATSM-Cu(II) complex, all the measurements were carried out in 30% DMSO in 0.1 M phosphate buffer (pH 7.4), at physiological conditions.

Data set [3] is described as follows: Low temperature CW-EPR of Cu(II) binding to Ctr1 N-terminal peptides in KPi buffer. The conditions noted are these: for percentage of Cu(II) bound to peptide (species other than 4O coordination): 130 K. The method, then:
Continuous wave electron […] (CW-EPR) spectra were recorded using an Elexsys™ E500 spectrometer (Bruker) operating at 9.0-9.5 GHz, equipped with a super-high-sensitivity CW resonator. The spectra were recorded at room temperature (RT; 295±2 K) or at low temperature (130±5 K) at a microwave power of 20.0 mW, modulation amplitude of 1.0 G, time constant of 60 or 80 milliseconds, and receiver gain of 60.0 dB. The samples were measured in 0.8 mm or 1.0 mm capillary quartz tubes (VitroCom) at RT. Solutions that were measured at low temperature were mixed with 20% glycerol, and measured in a 3.0 mm or 4.0 mm Wilmad® quartz tube.
Simulation of CW-EPR spectra was performed using MATLAB, with the EasySpin™ toolbox, according to procedures described by Stoll & Schweiger [J Magn Reson 2006, 178:42-55]. In fitting a spectrum to a simulation, emphasis is placed on small peaks of in the region of under 3000G.
The abovementioned peptides Pep1-Pep5 were investigated by CW-EPR measurements at low temperature (130 K), in the presence of different concentrations of Cu(II). The data were subsequently incorporated into simulations using the EasySpin™ tool box, and the first coordination sphere of Cu(II) was determined for each peptide, according to procedures described in Peisach & Blumberg [Arch Biochem Biophys 1974, 165:691-708]. The experimental data and comparisons with simulated data (including parameters derived from the simulations) for peptides Pep1-Pep5, at a variety of peptide:Cu(II) molar ratios, are presented in FIGS. 7-11. FIG. 12 presents the experimental data and comparisons with simulated data for peptides Pep1-Pep5 at a peptide:Cu(II) molar ratio of 1:1.
The simulation for each peptide took into account two Cu(II) species. The first species corresponds to free Cu(II) ions in water, where Cu(II) is coordinated to four oxygen atoms (4O coordination), with g∥=2.39±0.005, A∥=154±2.0 G. The second species corresponds to Cu(II) that is bound to the peptide with coordination of 3N1O or 2N2O.

Data set [4] can be described thus: Reduction of Cu(II) to Cu(I) by ascorbate in the presence of peptide, followed by room temperature EPR intensity. The conditions noted are these: 2 mM ascorbate, peptide:ascorbate:Cu(II) 1:2:2; for Cu(II) reduced: within 4000 seconds, room temperature. The method, then:
For measuring Cu(II) reduction by EPR spectroscopy, 20 μl of aqueous CuCl2 solution (2 mM) was added to 20 μl of a solution of a tested peptide (1 mM). At time zero, 20 μl of ascorbic acid solution (2 mM) was added, and the solution was mixed under anaerobic conditions. Cu(II) EPR signal intensity (at the maximum EPR signal intensity (g⊥ position)) was measured as a function of time.
The effects of the mutations of the Pep2-Pep5 peptides on the reduction of Cu(II) to Cu(I) was then investigated, by evaluating the room temperature (RT) change in EPR intensity over time, as Cu(I) is EPR-silent. Reduction of Cu(II) was effected in the presence of 2 mM ascorbate (a peptide:ascorbate:Cu(II) molar ratio of 1:2:2). For comparison, the reduction of free Cu(II) in buffer was also measured.

A short description of data set [5]: UV-VIS titration of peptides with Cu(I), absorption at 265 nm. Type of data set: binding. Particulars: for absorption at 265 nm upon addition of Cu(I) (Cu(I) binding): 3-20 molar equivalents of Cu(I). The method, then:
UV-Visible-IR absorption spectra were obtained using a Cary® Bio 100 spectrophotometer, or using a Chirascan™ spectrometer (Applied Photophysics), at room temperature with a 1 mm optical path-length cell. Acetone was used as a reference. Typically, peptides were measured at a concentration of 0.3 mg/ml. Difference absorption spectra were obtained for peptides titrated with Cu(I) from 200 to 600 nm with a step size and a bandwidth of 0.5 nm.
Cu(I) was added to peptide solutions in the form of tetrakis(acetonitrile)copper(I) hexafluorophosphate under nitrogen gas in order to preserve anaerobic conditions. No Cu(II) signal was observed by EPR, thereby confirming the purity of the Cu(I).
In order to gain further insight into Cu(I) coordination, UV-VIS measurements were performed on the various peptides (as described n the Materials and Methods section hereinabove).

The mark [6] stands for this setting: peptide:Cu(II) molar ratio 1:0.6.
The mark [7] stands for this setting: peptide:Cu(II) molar ratio 1:0.8.
Setting [8] is: peptide:Cu(II) molar ratio 1:1.4.
The mark [9] stands for this setting: peptide:Cu(II) molar ratio 1:0.4.

“And” between values parts separate entries of the source, which are not always exact repeats. Equal values may be shown once. No end group written: not given here. *: point of attachment. MTSSL = S-(1-oxyl-2,2,5,5-tetramethyl-2,5-dihydro-1H-pyrrol-3-yl)methyl methanesulfonothioate spin label conjugate, CC1(C)C=C(CS*)C(C)(C)N1[O]

With `c1cnc2c(c1)ccc1cccnc12` [1,10-phenanthroline], in data set [1], the “effect on electron paramagnetic spectrum of ATSM-Cu(II) complex” value was “induced significant changes”. For the same compound, in data set [2], the “molar equivalents sufficient/needed to remove copper from the ATSM-Cu(II) complex” value (“molar equivalents sufficient/needed” for short) was “two molar equivalents”.
As for `CN=C([S-])N/N=C(C)/C(C)=N/NC([S-])=NC.[Cu+2]` [ATSM-Cu(II), Cu(II)-diacetyl-bis(N4-methylthiosemicarbazone)], in data set [2] (overall conclusion from UV-visible and EPR), the “stability of ATSM-Cu(II) complex in the presence of Cu(II) ligands” value is given as “may be unstable in a cellular environment”.
On to `O=C(O)CNCC(=O)O` [IDA, Imino-diacetic acid], for which the “effect on electron paramagnetic spectrum of ATSM-Cu(II) complex” value in data set [1] was “induced significant changes”. Also, the “molar equivalents sufficient/needed” value in data set [2] is listed as “at least four molar equivalents”.
Consider HTGMK, for which the “molar equivalents sufficient/needed” value in data set [2] is “one molar equivalent”.
As to “MDASHHMGMSYMDS (Pep3 peptide amino acid sequence)”, the “percentage of Cu(II) bound to peptide (species other than 4O coordination)” value (“percentage of Cu(II) bound to peptide” below) was 70% in data set [3] (setting [6]); 70% in data set [3] (setting [7]); 63% in data set [3] (setting [8]); 55% in data set [3] (peptide:Cu(II) molar ratio 1:2); 55% in data set [3] (peptide:Cu(II) molar ratio 1:3). The “Cu(II) reduced” value in data set [4] is reported as “about 5%”. Also, the “Cu(I):peptide molar ratio at which binding occurred” value in data set [5] (titration with Cu(I)) was “exceeding 5.0”.
“MDHSAHMGMSYMDS (Pep4 peptide amino acid sequence)”: the “percentage of Cu(II) bound to peptide” value in data set [3] (setting [9]) worked out at 70%; in data set [3] (setting [6]), 80%; in data set [3] (setting [7]) it was 85%; in data set [3] (peptide:Cu(II) molar ratio 1:1), 90%; in data set [3] (setting [8]) it was 92%; in data set [3] (peptide:Cu(II) molar ratio 1:2), 94%. Moreover, in data set [3] (peptide:Cu(II) molar ratio 1:3), the “percentage of Cu(II) bound to peptide” value was 97% and 100%. Also, in data set [4], the “reduction of Cu(II) compared with free Cu(II) ions” value is “more rapid than reduction of free Cu(II) ions”. Further, in data set [4], the “reduction of Cu(II) compared with wild-type peptide” value was “more rapid than in the presence of Pep1”.
On to “MDHSHAMGMSYMDS (Pep5 peptide amino acid sequence)”, for which the “percentage of Cu(II) bound to peptide” value turned out to be 75% in data set [3] (setting [9]); 75% in data set [3] (setting [6]); 75% in data set [3] (setting [7]); 40% in data set [3] (setting [8]); 40% in data set [3] (peptide:Cu(II) molar ratio 1:2); 30% in data set [3] (peptide:Cu(II) molar ratio 1:3). For the same compound, in data set [4], the “reduction of Cu(II) compared with wild-type peptide” value was “more rapid than in the presence of Pep1”.
With “MDHSHHMAMSYMDS (Pep2 peptide amino acid sequence)”, the “percentage of Cu(II) bound to peptide” value in data set [3] (setting [9]) was 60%; in data set [3] (setting [6]), 80%; in data set [3] (setting [7]), 85% and 80%; in data set [3] (peptide:Cu(II) molar ratio 1:1) it was 70%; in data set [3] (setting [8]) it was 60%; in data set [3] (peptide:Cu(II) molar ratio 1:2), 62%. Besides, in data set [3] (peptide:Cu(II) molar ratio 1:3), the “percentage of Cu(II) bound to peptide” value turned out to be 58%. Besides, the “Cu(II) reduced” value in data set [4] was “about 5%”.
“MDHSHHMGMSYMDS (Pep1 peptide amino acid sequence)”: the “Cu(II) bound to peptide” value in data set [3] (low Cu(II) concentrations) is given as “substantially all Cu(II) is bound”. In addition, the “percentage of Cu(II) bound to peptide” value in data set [3] (peptide:Cu(II) molar ratio 1:1) is on record as 80%; in data set [3] (setting [8]), 70%; in data set [3] (peptide:Cu(II) molar ratio 1:2) it was 70%; in data set [3] (peptide:Cu(II) molar ratio 1:3), 70%. The “Cu(II) reduced” value in data set [4] was “about 5%”.
On to “MTSSL-CMDHSHHAGMSYMDSC-MTSSL (C(MTSSL)MDHSHHAGMSYMDSC(MTSSL)-NH2; N-terminus assumed; SMILES CSCC[C@H](NC(=O)CNC(=O)[C@H](C)NC(=O)[C@H](Cc1c[nH]cn1)NC(=O)[C@H](Cc1c[nH]cn1)NC(=O)[C@H](CO)NC(=O)[C@H](Cc1c[nH]cn1)NC(=O)[C@H](CC(=O)O)NC(=O)[C@H](CCSC)NC(=O)[C@@H](N)CSSCC1=CC(C)(C)N([O])C1(C)C)C(=O)N[C@@H](CO)C(=O)N[C@@H](Cc1ccc(O)cc1)C(=O)N[C@@H](CCSC)C(=O)N[C@@H](CC(=O)O)C(=O)N[C@@H](CO)C(=O)N[C@@H](CSSCC1=CC(C)(C)N([O])C1(C)C)C(N)=O) [Pep8]”, for which the “absorption at 265 nm upon addition of Cu(I) (Cu(I) binding)” value (shortened to “absorption at 265 nm upon addition”) in data set [5] is “did not change upon addition of Cu(I)”.
Regarding “MTSSL-CMDHSHHMGASYMDSC-MTSSL (C(MTSSL)MDHSHHMGASYMDSC(MTSSL)-NH2; N-terminus assumed; SMILES CSCC[C@H](NC(=O)[C@H](Cc1c[nH]cn1)NC(=O)[C@H](Cc1c[nH]cn1)NC(=O)[C@H](CO)NC(=O)[C@H](Cc1c[nH]cn1)NC(=O)[C@H](CC(=O)O)NC(=O)[C@H](CCSC)NC(=O)[C@@H](N)CSSCC1=CC(C)(C)N([O])C1(C)C)C(=O)NCC(=O)N[C@@H](C)C(=O)N[C@@H](CO)C(=O)N[C@@H](Cc1ccc(O)cc1)C(=O)N[C@@H](CCSC)C(=O)N[C@@H](CC(=O)O)C(=O)N[C@@H](CO)C(=O)N[C@@H](CSSCC1=CC(C)(C)N([O])C1(C)C)C(N)=O) [Pep9]”, the “absorption at 265 nm upon addition” value in data set [5] is listed as “did not change upon addition of Cu(I)”.
With “MTSSL-CMDHSHHMGMSYADSC-MTSSL (C(MTSSL)MDHSHHMGMSYADSC(MTSSL)-NH2; N-terminus assumed; SMILES CSCC[C@H](NC(=O)CNC(=O)[C@H](CCSC)NC(=O)[C@H](Cc1c[nH]cn1)NC(=O)[C@H](Cc1c[nH]cn1)NC(=O)[C@H](CO)NC(=O)[C@H](Cc1c[nH]cn1)NC(=O)[C@H](CC(=O)O)NC(=O)[C@H](CCSC)NC(=O)[C@@H](N)CSSCC1=CC(C)(C)N([O])C1(C)C)C(=O)N[C@@H](CO)C(=O)N[C@@H](Cc1ccc(O)cc1)C(=O)N[C@@H](C)C(=O)N[C@@H](CC(=O)O)C(=O)N[C@@H](CO)C(=O)N[C@@H](CSSCC1=CC(C)(C)N([O])C1(C)C)C(N)=O) [Pep10]”, the “absorption at 265 nm upon addition” value in data set [5] was “did not change upon addition of Cu(I)”.

Source of the values: US12156922B2, “Copper-containing complex and uses thereof” (Bar-Ilan University, priority 2017, dated 2024).
